Experimental data reported in the kinase profiling compilation of Christmann-Franck et al. (2016).
Values joined by “and” are separate entries in the source; they are usually repeats but may differ in a detail not shown here. Equal entries are not always repeated.

How the values were obtained:
Test in all cases: radiometric filter-binding kinase assay, Kinase HotSpot
Conditions in all cases: compound 0.5 µM; ATP 10 µM
[1] = target: ABL1 (human) (UniProt P00519)
[2] = target: ABL2 (human) (UniProt P42684)
[3] = target: BRSK1 (human) (UniProt Q8TDC3)
[4] = target: CAMKK2 (human) (UniProt Q96RR4)
Sequence of CAMKK2 (human) (Q96RR4 whole entry, looked up): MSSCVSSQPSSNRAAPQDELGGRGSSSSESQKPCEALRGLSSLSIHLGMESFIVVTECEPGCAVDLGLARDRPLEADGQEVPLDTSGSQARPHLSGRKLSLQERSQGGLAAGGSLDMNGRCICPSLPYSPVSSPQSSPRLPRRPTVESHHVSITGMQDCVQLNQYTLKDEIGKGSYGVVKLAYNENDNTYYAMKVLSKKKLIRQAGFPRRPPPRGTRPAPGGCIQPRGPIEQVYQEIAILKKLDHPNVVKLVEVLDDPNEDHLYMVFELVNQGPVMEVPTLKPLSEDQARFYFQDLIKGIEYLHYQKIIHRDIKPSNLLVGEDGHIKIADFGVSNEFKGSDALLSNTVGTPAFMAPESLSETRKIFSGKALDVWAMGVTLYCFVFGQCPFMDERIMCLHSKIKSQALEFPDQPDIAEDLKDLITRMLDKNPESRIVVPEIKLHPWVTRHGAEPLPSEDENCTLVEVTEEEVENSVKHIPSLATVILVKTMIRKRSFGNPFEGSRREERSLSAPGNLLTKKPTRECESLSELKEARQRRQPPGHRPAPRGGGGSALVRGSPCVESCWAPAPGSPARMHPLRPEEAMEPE

[5] = target: CDK5 CDK5R1 p25 (human) (UniProt Q00535+Q15078)
Sequence of CDK5 CDK5R1 p25 (human) (Q00535 whole entry, looked up): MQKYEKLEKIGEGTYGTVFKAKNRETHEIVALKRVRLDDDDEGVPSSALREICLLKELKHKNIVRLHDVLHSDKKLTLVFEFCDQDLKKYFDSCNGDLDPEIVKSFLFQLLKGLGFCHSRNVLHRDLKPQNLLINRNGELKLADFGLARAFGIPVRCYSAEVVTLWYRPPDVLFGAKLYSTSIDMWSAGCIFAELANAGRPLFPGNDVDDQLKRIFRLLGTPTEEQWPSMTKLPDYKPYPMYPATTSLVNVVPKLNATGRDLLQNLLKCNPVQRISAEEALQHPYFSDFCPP
Sequence of CDK5 CDK5R1 p25 (human) (Q15078 whole entry, looked up): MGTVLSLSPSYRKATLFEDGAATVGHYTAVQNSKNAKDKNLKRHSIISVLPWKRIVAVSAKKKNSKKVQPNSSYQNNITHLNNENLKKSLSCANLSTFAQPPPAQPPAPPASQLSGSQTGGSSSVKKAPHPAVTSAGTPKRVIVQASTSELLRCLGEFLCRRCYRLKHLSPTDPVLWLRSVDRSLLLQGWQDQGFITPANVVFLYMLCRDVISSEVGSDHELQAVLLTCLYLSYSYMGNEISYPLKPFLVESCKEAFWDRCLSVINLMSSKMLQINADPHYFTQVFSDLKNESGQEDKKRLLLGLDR

[6] = target: CDK9 CCNK (human) (UniProt O75909+P50750)
[7] = target: CLK3 (human) (UniProt P49761)
[8] = target: CSK (human) (UniProt P41240)
[9] = target: CSNK1D (human) (UniProt P48730)
[10] = target: CSNK1E (human) (UniProt P49674)
[11] = target: DSTYK (human) (UniProt Q6XUX3)
[12] = target: DYRK1B (human) (UniProt Q9Y463)
[13] = target: EPHA7 (human) (UniProt Q15375)
Sequence of EPHA7 (human) (Q15375 whole entry, looked up): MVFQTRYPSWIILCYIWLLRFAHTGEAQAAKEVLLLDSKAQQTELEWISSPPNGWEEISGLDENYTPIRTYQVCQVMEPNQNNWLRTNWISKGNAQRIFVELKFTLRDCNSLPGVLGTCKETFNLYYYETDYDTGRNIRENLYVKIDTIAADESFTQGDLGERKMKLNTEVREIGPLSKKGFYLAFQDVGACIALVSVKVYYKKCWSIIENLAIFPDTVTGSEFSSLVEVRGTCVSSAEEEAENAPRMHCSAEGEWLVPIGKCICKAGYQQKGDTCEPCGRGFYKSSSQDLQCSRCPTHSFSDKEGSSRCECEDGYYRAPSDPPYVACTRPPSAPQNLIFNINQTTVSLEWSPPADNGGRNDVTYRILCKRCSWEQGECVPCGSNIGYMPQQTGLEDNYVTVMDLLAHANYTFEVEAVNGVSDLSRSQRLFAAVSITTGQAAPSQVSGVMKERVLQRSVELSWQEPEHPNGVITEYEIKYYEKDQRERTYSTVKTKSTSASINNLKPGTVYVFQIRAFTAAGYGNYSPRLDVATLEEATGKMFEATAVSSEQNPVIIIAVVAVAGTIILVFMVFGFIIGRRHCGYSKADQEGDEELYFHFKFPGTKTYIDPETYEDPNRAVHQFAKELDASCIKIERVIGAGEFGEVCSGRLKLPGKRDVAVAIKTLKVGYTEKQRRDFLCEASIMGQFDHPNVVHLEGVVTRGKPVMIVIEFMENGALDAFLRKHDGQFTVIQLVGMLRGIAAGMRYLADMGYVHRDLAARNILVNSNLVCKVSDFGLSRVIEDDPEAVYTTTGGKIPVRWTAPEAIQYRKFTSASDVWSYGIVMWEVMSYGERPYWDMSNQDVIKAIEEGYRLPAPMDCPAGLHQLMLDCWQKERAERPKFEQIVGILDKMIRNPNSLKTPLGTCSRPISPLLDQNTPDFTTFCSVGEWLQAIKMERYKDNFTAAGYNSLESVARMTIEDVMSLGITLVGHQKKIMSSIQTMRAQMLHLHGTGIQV

[14] = target: EPHB2 (human) (UniProt P29323)
[15] = target: ERBB2 (human) (UniProt P04626)
[16] = target: FES (human) (UniProt P07332)
[17] = target: FLT1 (human) (UniProt P17948)
[18] = target: HIPK3 (human) (UniProt Q9H422)
Sequence of HIPK3 (human) (Q9H422 whole entry, looked up): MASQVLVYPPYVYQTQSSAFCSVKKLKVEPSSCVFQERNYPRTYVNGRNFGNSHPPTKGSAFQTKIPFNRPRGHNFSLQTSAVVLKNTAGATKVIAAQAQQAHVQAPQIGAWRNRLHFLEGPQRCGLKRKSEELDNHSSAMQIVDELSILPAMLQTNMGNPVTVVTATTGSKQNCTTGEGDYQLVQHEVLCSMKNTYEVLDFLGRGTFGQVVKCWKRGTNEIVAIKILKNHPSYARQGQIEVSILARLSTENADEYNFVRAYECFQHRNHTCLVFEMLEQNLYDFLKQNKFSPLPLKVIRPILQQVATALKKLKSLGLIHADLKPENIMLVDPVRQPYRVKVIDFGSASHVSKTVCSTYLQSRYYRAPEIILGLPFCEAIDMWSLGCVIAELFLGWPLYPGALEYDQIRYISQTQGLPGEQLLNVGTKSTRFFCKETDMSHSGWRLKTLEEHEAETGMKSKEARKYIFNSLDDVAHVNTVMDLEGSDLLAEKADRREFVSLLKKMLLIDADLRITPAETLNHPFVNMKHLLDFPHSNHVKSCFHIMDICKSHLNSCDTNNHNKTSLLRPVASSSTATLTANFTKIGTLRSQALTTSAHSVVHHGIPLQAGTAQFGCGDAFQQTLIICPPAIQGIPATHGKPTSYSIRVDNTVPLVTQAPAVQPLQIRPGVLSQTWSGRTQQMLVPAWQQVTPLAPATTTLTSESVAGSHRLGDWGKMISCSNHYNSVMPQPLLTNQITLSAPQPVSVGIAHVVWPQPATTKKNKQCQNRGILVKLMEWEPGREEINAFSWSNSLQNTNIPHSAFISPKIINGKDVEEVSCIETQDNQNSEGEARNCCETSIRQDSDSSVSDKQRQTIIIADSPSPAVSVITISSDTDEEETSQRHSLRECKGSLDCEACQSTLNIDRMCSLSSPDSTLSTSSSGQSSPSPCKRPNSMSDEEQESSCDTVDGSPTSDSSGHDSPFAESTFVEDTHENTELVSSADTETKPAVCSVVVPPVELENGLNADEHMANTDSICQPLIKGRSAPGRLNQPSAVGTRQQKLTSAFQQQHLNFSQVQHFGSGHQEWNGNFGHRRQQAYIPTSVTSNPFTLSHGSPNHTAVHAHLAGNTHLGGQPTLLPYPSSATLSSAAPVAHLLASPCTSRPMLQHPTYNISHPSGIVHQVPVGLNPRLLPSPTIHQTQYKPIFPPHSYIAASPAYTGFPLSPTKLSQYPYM

[19] = target: IGF1R (human) (UniProt P08069)
[20] = target: INSRR (human) (UniProt P14616)
[21] = target: IRAK4 (human) (UniProt Q9NWZ3)
[22] = target: JAK2 JH1 JH2 (human) (UniProt O60674)
[23] = target: MAP3K14 (human) (UniProt Q99558)
[24] = target: MAP3K2 (human) (UniProt Q9Y2U5)
[25] = target: MAPK9 (human) (UniProt P45984)
[26] = target: MAPKAPK3 (human) (UniProt Q16644)
[27] = target: MARK3 (human) (UniProt P27448)
Sequence of MARK3 (human) (P27448 whole entry, looked up): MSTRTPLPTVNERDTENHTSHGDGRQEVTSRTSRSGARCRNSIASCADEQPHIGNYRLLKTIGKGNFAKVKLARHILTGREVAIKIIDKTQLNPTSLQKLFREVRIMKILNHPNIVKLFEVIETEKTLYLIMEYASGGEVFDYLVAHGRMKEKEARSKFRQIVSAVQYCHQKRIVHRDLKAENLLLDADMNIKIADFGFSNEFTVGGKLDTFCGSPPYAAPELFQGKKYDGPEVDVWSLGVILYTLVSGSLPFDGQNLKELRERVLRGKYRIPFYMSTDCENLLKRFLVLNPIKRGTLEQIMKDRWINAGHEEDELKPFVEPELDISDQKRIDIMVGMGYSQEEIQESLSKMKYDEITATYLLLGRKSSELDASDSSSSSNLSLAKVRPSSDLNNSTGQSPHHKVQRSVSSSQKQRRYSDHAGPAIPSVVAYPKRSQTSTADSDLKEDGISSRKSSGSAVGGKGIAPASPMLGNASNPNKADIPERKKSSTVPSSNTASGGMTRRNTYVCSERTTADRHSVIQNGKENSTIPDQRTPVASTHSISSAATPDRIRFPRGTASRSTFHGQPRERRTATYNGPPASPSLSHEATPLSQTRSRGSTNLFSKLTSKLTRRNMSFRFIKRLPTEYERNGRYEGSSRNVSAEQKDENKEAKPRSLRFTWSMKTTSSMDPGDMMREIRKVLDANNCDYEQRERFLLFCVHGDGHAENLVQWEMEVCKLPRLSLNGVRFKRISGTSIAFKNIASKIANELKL

[28] = target: MINK1 (human) (UniProt Q8N4C8)
[29] = target: MKNK2 (human) (UniProt Q9HBH9)
[30] = target: MLTK (human) (UniProt Q9NYL2)
[31] = target: MST4 (human) (UniProt Q9P289)
[32] = target: NEK6 (human) (UniProt Q9HC98)
[33] = target: NLK (human) (UniProt Q9UBE8)
[34] = target: PAK7 (human) (UniProt Q9P286)
[35] = target: PHKG2 (human) (UniProt P15735)
Sequence of PHKG2 (human) (P15735 whole entry, looked up): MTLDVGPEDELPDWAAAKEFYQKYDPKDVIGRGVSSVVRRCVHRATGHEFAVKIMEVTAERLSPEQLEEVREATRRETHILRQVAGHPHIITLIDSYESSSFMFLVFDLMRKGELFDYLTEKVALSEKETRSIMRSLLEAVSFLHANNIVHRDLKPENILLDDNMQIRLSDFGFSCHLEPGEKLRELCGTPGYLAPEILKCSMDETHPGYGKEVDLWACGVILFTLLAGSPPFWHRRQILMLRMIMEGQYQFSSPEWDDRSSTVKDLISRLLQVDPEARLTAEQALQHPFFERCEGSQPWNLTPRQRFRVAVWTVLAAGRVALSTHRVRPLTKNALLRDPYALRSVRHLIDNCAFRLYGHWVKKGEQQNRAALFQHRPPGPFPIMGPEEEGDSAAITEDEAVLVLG

[36] = target: PKN1 (human) (UniProt Q16512)
[37] = target: PRKCA (human) (UniProt P17252)
[38] = target: PRKG1 (human) (UniProt Q13976)
[39] = target: PRKX (human) (UniProt P51817)
Sequence of PRKX (human) (P51817 whole entry, looked up): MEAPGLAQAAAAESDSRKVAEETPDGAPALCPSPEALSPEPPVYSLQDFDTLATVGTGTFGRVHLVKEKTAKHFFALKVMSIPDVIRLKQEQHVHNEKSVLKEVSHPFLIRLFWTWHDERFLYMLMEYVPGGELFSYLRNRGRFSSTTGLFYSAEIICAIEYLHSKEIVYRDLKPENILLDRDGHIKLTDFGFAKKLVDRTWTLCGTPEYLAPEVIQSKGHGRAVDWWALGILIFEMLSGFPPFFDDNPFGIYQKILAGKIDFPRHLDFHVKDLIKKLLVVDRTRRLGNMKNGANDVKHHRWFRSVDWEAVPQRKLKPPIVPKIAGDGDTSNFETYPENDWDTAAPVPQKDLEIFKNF

[40] = target: SRPK3 (human) (UniProt Q9UPE1)
[41] = target: SYK (human) (UniProt P43405)
[42] = target: ULK2 (human) (UniProt Q8IYT8)

## N#CCCc1ccc2c(c1)-c1[nH]c3ccc([N+](=O)[O-])cc3c1CC(=O)N2
[1]
  residual activity: 47.8%
[2]
  residual activity: 49.8%
[3]
  residual activity: 46.8%
[4]
  residual activity: 86.8%
[5]
  residual activity: 5.79%
[6]
  residual activity: 23.7%
[7]
  residual activity: 108%
[8]
  residual activity: 96.3%
[9]
  residual activity: 97.4%
[10]
  residual activity: 91.4%
[11]
  residual activity: 67.1%
[12]
  residual activity: 76.8%
[13]
  residual activity: 95.3%
[14]
  residual activity: 98.5%
[15]
  residual activity: 98.6%
[16]
  residual activity: 37.9%
[17]
  residual activity: 99.7%
[18]
  residual activity: 104%
[19]
  residual activity: 92.2%
[20]
  residual activity: 99.2%
[21]
  residual activity: 155%
[22]
  residual activity: 93%
[23]
  residual activity: 161%
[24]
  residual activity: 61.5%
[25]
  residual activity: 97.1%
[26]
  residual activity: 96.8%
[27]
  residual activity: 67.3%
[28]
  residual activity: 29.9%
[29]
  residual activity: 87.7%
[30]
  residual activity: 88.6%
[31]
  residual activity: 65.1%
[32]
  residual activity: 101%
[33]
  residual activity: 89.7%
[34]
  residual activity: 60.3%
[35]
  residual activity: 99.1%
[36]
  residual activity: 78%
[37]
  residual activity: 80.9%
[38]
  residual activity: 88.4% and 99.3%
[39]
  residual activity: 78.4%
[40]
  residual activity: 94.6%
[41]
  residual activity: 58%
[42]
  residual activity: 73.1%

## CCOc1cc2ncnc(Nc3cccc(Br)c3)c2cc1OCC
[1]
  residual activity: 64.3%
[2]
  residual activity: 52.1%
[3]
  residual activity: 86.1%
[4]
  residual activity: 101%
[5]
  residual activity: 89.5%
[6]
  residual activity: 102%
[7]
  residual activity: 85.3%
[8]
  residual activity: 94%
[9]
  residual activity: 103%
[10]
  residual activity: 93.8%
[11]
  residual activity: 101%
[12]
  residual activity: 103%
[13]
  residual activity: 58.5%
[14]
  residual activity: 77%
[15]
  residual activity: 13.8%
[16]
  residual activity: 96.8%
[17]
  residual activity: 85%
[18]
  residual activity: 102%
[19]
  residual activity: 101%
[20]
  residual activity: 88.8%
[21]
  residual activity: 102%
[22]
  residual activity: 99%
[23]
  residual activity: 93.4%
[24]
  residual activity: 102%
[25]
  residual activity: 98.5%
[26]
  residual activity: 87.4%
[27]
  residual activity: 98.8%
[28]
  residual activity: 77.8%
[29]
  residual activity: 34.3%
[30]
  residual activity: 89.8%
[31]
  residual activity: 94.9%
[32]
  residual activity: 106%
[33]
  residual activity: 95.9%
[34]
  residual activity: 99.1%
[35]
  residual activity: 101%
[36]
  residual activity: 100%
[37]
  residual activity: 85.3%
[38]
  residual activity: 96% and 96.7%
[39]
  residual activity: 99.8%
[40]
  residual activity: 93.5%
[41]
  residual activity: 95.6%
[42]
  residual activity: 82.8%

## CCc1nc(-c2ccc(OC)cc2)[nH]c1-c1ccncc1
[1]
  residual activity: 101%
[2]
  residual activity: 98.3%
[3]
  residual activity: 101%
[4]
  residual activity: 109%
[5]
  residual activity: 95.9%
[6]
  residual activity: 97.9%
[7]
  residual activity: 95.6%
[8]
  residual activity: 101%
[9]
  residual activity: 95.1%
[10]
  residual activity: 95%
[11]
  residual activity: 99.6%
[12]
  residual activity: 106%
[13]
  residual activity: 91.6%
[14]
  residual activity: 111%
[15]
  residual activity: 98.9%
[16]
  residual activity: 100%
[17]
  residual activity: 90.2%
[18]
  residual activity: 106%
[19]
  residual activity: 99.5%
[20]
  residual activity: 102%
[21]
  residual activity: 111%
[22]
  residual activity: 96.7%
[23]
  residual activity: 118%
[24]
  residual activity: 98.2%
[25]
  residual activity: 101%
[26]
  residual activity: 102%
[27]
  residual activity: 101%
[28]
  residual activity: 103%
[29]
  residual activity: 88.2%
[30]
  residual activity: 106%
[31]
  residual activity: 106%
[32]
  residual activity: 95.3%
[33]
  residual activity: 103%
[34]
  residual activity: 101%
[35]
  residual activity: 111%
[36]
  residual activity: 97%
[37]
  residual activity: 107%
[38]
  residual activity: 81% and 91.2%
[39]
  residual activity: 93.3%
[40]
  residual activity: 102%
[41]
  residual activity: 98.7%
[42]
  residual activity: 98%
